Test results from PMC6920704, “1-(Piperidin-3-yl)thymine amides as inhibitors of M. tuberculosis thymidylate kinase” (Journal of Enzyme Inhibition and Medicinal Chemistry, 2019).

target: T1, MtbTMPK (M. tuberculosis thymidylate kinase) (Mycobacterium tuberculosis, UniProt P9WKE1); assay: coupled spectrophotometric assay (NADH, […] nm); format: biochemical; settings: 0.5 mM ATP, 0.05 mM dTMP, 2 mM MgCl2, 50 mM KCl, 50 mM Tris-HCl pH 7.4, 30 °C; unreliable (above the highest tested concentration of 0.12 mM)
T1 construct: gene tmk
T1 sequence (P9WKE1 whole entry, looked up): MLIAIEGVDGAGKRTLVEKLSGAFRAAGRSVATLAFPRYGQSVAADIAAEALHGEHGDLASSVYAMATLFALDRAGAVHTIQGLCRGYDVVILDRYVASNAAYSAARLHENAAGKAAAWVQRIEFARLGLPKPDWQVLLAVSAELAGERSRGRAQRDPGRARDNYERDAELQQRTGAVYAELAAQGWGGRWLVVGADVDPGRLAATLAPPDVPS

| Compound | IC50MtbTMPK [µM] |
| --- | --- |
| Cc1cn(C2CCCN(C(=O)c3cccc(Oc4cc(C(F)(F)F)cc(C(F)(F)F)c4)c3)C2)c(=O)[nH]c1=O (stereo not drawn) [4k] | 158 ± 89 |

target: T1, MtbTMPK (M. tuberculosis thymidylate kinase); assay: coupled spectrophotometric assay (NADH, […] nm); format: biochemical; settings: read-out: IC50MtbTMPK

| Compound | IC50 [µM] |
| --- | --- |
| Cc1cn(C2CCCN(C(=O)c3cccc(Oc4ccccc4)c3)C2)c(=O)[nH]c1=O (racemic) [compound 3, 3] | 28 ± 2 |
| Cc1cn(C2CCCN(C(=O)c3cccc(Oc4ccc(Cl)cc4)c3)C2)c(=O)[nH]c1=O (stereo not drawn) [4c] | 39 ± 19 |
| Cc1cn(C2CCCN(C(=O)c3cccc(Oc4ccc(Cl)c(Cl)c4)c3)C2)c(=O)[nH]c1=O (stereo not drawn) [4g] | 18 ± 1 |
| Cc1cn(C2CCCN(C(=O)c3cccc(Oc4cc(F)cc(F)c4)c3)C2)c(=O)[nH]c1=O (stereo not drawn) [4j] | 31 ± 2 |
| Cc1cn(C2CCCN(C(=O)c3cccc(Oc4ccc([N+](=O)[O-])cc4)c3)C2)c(=O)[nH]c1=O (stereo not drawn) [4e] | 30 ± 3 |
| Cc1cn(C2CCCN(C(=O)c3cccc(Oc4cccc(C(F)(F)F)c4)c3)C2)c(=O)[nH]c1=O (stereo not drawn) [4f] | 53 ± 12 |
| COc1cccc(Oc2cccc(C(=O)N3CCCC(n4cc(C)c(=O)[nH]c4=O)C3)c2)c1 (stereo not drawn) [4b] | 15 ± 1 |
| Cc1cn(C2CCCN(C(=O)c3cccc(Oc4cccc(N(C)C)c4)c3)C2)c(=O)[nH]c1=O (stereo not drawn) [4a] | 39 ± 3 |
| Cc1cn(C2CCCN(C(=O)c3cccc(Oc4cc(Cl)cc(Cl)c4)c3)C2)c(=O)[nH]c1=O (stereo not drawn) [4i] | 13 ± 1 |
| Cc1cn(C2CCCN(C(=O)c3cccc(Oc4ccc(F)cc4)c3)C2)c(=O)[nH]c1=O (stereo not drawn) [4d] | 18 ± 1 |
| Cc1cn(C2CCCN(C(=O)c3cccc(Oc4ccc(F)c(F)c4)c3)C2)c(=O)[nH]c1=O (stereo not drawn) [4h] | 23 ± 1 |
